Values after ≈ are worked out from the molar mass of the structure shown.

The test system of data set [1] is M. tuberculosis H37Rv. Briefly: Resazurin reduction microtiter assay (REMA), growth inhibition and MIC determination. The note with it: Mycobacterium tuberculosis, 168 h, 7 days at 37° C.; for inhibition at 20 µM: at 20 uM compound, read-out: H37Rv inh % at 20 uM; for MIC: two-fold serial dilution from 100 to 0.16 μM, read-out: H37Rv MIC90. Type of data set: cell-based.

In data set [2] the test system is HepG2.
Data set [3] addresses T1, human PLK1 kinase domain (Homo sapiens, UniProt P53350).
T1 construct: Each reaction consisted of 30 nM enzyme PLK1 kinase domain
The data set can be described thus: In vitro PLK1 assay (IMAP fluorescence polarization kinase assay). It counts as biochemical. To be noted: for inhibition at 10 µM: at 10 uM compound; for IC50: 30 nM PLK1 kinase domain, 16 μM ATP (=Kmapp), 90 min at room temperature. As to the method: The activity of the compounds described in the present invention was determined using a commercially available IMAP Screening Express Assay Kit (Molecular devices).
This method measures the change in the fluorescent polarization of a fluorescently-labeled peptide due to the effect of human PLK1 kinase domain on it. PLK1 kinase assays were performed in low protein binding 384-well plates (Corning 3676). Test compounds were diluted in 100% DMSO to 5 mM stock concentration, the further dilutions were made in H2O or 100% DMSO to desirable concentrations.
Each reaction consisted of 30 nM enzyme PLK1 kinase domain, 400 nM 5TAMRA-RGSFNDTLDFD-NH2 (Genecust Europe), 16 μM ATP (=Kmapp, Sigma-Aldrich) and kinase buffer: 20 mM HEPES pH 7.5 (Sigma-Aldrich), 1 mM DTT (Sigma-Aldrich), 10 mM MgCl2 (Sigma-Aldrich), 0.01% Triton X-100 (Sigma-Aldrich).
For each reaction, 4 or 6 μl containing 5TAMRA-RGSFNDTLDFD-NH2, ATP and kinase buffer were combined with 2 μl diluted compound in H2O or 0.04 μl compound in 100% DMSO. The kinase reaction was started by the addition of 2 μl diluted enzyme. The reaction was allowed to run for 90 minutes at room temperature. The reaction was stopped by adding 15 μl IMAP beads (1:1200 beads in progressive (40% buffer A, 60% buffer B) 1× buffer). After an additional 60 minutes, fluorescent polarization (Ex: 550-10 nm, Em: 590-10 nm, Dich: 561 nm) was measured using Analyst GT multimode reader (Molecular Devices).

T1 sequence (P53350 53-305 limits assumed): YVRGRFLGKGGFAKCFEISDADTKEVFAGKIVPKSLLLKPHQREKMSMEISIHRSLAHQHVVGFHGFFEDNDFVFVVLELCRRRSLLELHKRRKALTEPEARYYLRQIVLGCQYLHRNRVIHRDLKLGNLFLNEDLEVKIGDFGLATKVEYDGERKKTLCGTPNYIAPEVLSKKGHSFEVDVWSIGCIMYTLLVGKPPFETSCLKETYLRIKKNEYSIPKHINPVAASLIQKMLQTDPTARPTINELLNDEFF

For `COc1ccc(C(C)(C)C)cc1-c1cc(Nc2ccc(S(=O)(=O)Nc3onc(C)c3C)cc2)ncn1` [Example 6, 4-[6-(5-tert-Butyl-2-methoxy-phenyl)-pyrimidin-4-ylamino]-N-(3,4-dimethyl-isoxazol-5-yl)-benzenesulfonamide], in data set [1], the inhibition at 20 µM was 94.1% and the MIC amounted to 19.6 µM (≈ 9.95 µg/mL). Further, the “HepG2 TD50” value in data set [2] is recorded as 19.6. Besides, in data set [3], the inhibition at 10 µM turned out to be 26.1%.
Consider `Cc1noc(NS(=O)(=O)c2ccc(Nc3cc(-c4c(F)cccc4OC(C)C)ncn3)cc2)c1C` [Example 23, N-(3,4-Dimethyl-isoxazol-5-yl)-4-[6-(2-fluoro-6-isopropoxy-phenyl)-pyrimidin-4-ylamino]-benzenesulfonamide], for which, in data set [1], the inhibition at 20 µM was determined as 102% and the MIC came out at 10.2 µM (≈ 5.1 µg/mL). In data set [3], the IC50 – broadly, the concentration that gives 50% inhibition – amounted to 1.78 µM and the inhibition at 10 µM is 70.4%.
With `Cc1noc(NS(=O)(=O)c2ccc(Nc3cc(-c4cc(Cl)ccc4OC(C)C)ncn3)cc2)c1C` [Example 24, 4-[6-(5-Chloro-2-isopropoxy-phenyl)-pyrimidin-4-ylamino]-N-(3,4-dimethyl-isoxazol-5-yl)-benzenesulfonamide], the inhibition at 20 µM in data set [1] was -20.4%. Moreover, in data set [3], the IC50 worked out at 3.75 µM and the inhibition at 10 µM amounted to 80.7%.
As for `Cc1noc(NS(=O)(=O)c2ccc(Nc3cc(-c4ccc(C(F)(F)F)cc4)ncn3)cc2)c1C` [Example 25, N-(3,4-Dimethyl-isoxazol-5-yl)-4-[6-(4-trifluoromethyl-phenyl)-pyrimidin-4-ylamino]-benzenesulfonamide], in data set [1], the inhibition at 20 µM is -9.8%. Also, the inhibition at 10 µM in data set [3] came out at 0%.
In the case of `Cc1noc(NS(=O)(=O)c2ccc(Nc3cc(-c4ccccc4C(N)=O)ncn3)cc2)c1C` [Example 26, 2-{6-[4-(3,4-Dimethyl-isoxazol-5-ylsulfamoyl)-phenylamino]-pyrimidin-4-yl}-benzamide], in data set [1], the inhibition at 20 µM is -34.2%. Further, the inhibition at 10 µM in data set [3] was 0%.
Consider `CC(=O)Nc1ccc(-c2cc(Nc3ccc(S(=O)(=O)Nc4onc(C)c4C)cc3)ncn2)cc1` [Example 27, N-(4-{6-[4-(3,4-Dimethyl-isoxazol-5-ylsulfamoyl)-phenylamino]-pyrimidin-4-yl}-phenyl)-acetamide], for which the inhibition at 20 µM in data set [1] was -11.9%. Further, in data set [3], 0.372 µM corresponded to half-maximal inhibition (IC50) and the inhibition at 10 µM turned out to be 68.7%.
The like results for `COc1cc(Cl)ccc1-c1cc(Nc2ccc(S(=O)(=O)Nc3onc(C)c3C)cc2)ncn1` [Example 28, 4-[6-(4-Chloro-2-methoxy-phenyl)-pyrimidin-4-ylamino]-N-(3,4-dimethyl-isoxazol-5-yl)-benzenesulfonamide] were, in that order, 0.6%, 0.059 µM and 61.9%.
For the compound `COc1ccc(COc2ccccc2-c2cc(Nc3ccc(S(=O)(=O)Nc4onc(C)c4C)cc3)ncn2)cc1` [Example 29, N-(3,4-Dimethyl-isoxazol-5-yl)-4-{6-[2-(4-methoxy-benzyloxy)-phenyl]-pyrimidin-4-ylamino}-benzenesulfonamide], in data set [1], the inhibition at 20 µM was -14.2%. Also, in data set [3], the inhibition at 10 µM is 36%.
`COc1ccccc1-c1cc(Nc2ccc(S(=O)(=O)Nc3nnc(C)s3)cc2)ncn1` [Example 32, 4-[6-(2-Methoxy-phenyl)-pyrimidin-4-ylamino]-N-(5-methyl-[1,3,4]thiadiazol-2-yl)-benzenesulfonamide]: in data set [1], the inhibition at 20 µM worked out at 100% and the MIC turned out to be 18.5 µM (≈ 8.41 µg/mL). In data set [3], half-maximal inhibition (IC50) required 0.917 µM and the inhibition at 10 µM was found to be 63.5%.
On to `COc1ccccc1-c1cc(Nc2ccc(S(=O)(=O)Nc3cc(C)on3)cc2)ncn1` [Example 33, 4-[6-(2-Methoxy-phenyl)-pyrimidin-4-ylamino]-N-(5-methyl-isoxazol-3-yl)-benzenesulfonamide], for which the inhibition at 20 µM in data set [1] was -30.6%. In data set [3], the inhibition at 10 µM turned out to be 57.8%.
As to `Cc1noc(NS(=O)(=O)c2ccc(Nc3cc(-c4cccc(C#N)c4)ncn3)cc2)c1C` [Example 34, 4-[6-(3-Cyano-phenyl)-pyrimidin-4-ylamino]-N-(3,4-dimethyl-isoxazol-5-yl)-benzenesulfonamide], the inhibition at 20 µM in data set [1] was -4.3%. In data set [3], the inhibition at 10 µM was found to be 58.5%.
Turning to `COc1cccc(-c2cc(Nc3ccc(S(=O)(=O)Nc4onc(C)c4C)cc3)ncn2)c1` [Example 35, N-(3,4-Dimethyl-isoxazol-5-yl)-4-[6-(3-methoxy-phenyl)-pyrimidin-4-ylamino]-benzenesulfonamide], in data set [1], the inhibition at 20 µM was -8.1%. Further, in data set [3], the IC50 was 2.49 µM and the inhibition at 10 µM is 77.1%.
In the same order, the values of `COc1cccc(-c2cc(Nc3ccc(S(=O)(=O)Nc4onc(C)c4C)cc3)ncn2)c1OC` [Example 36, 4-[6-(2,3-Dimethoxy-phenyl)-pyrimidin-4-ylamino]-N-(3,4-dimethyl-isoxazol-5-yl)-benzenesulfonamide] are -9.8%, 2.18 µM and 77.3%.
Regarding `COc1ccc(F)cc1-c1cc(Nc2ccc(S(=O)(=O)Nc3onc(C)c3C)cc2)ncn1` [Example 38, N-(3,4-Dimethyl-isoxazol-5-yl)-4-[6-(5-fluoro-2-methoxy-phenyl)-pyrimidin-4-ylamino]-benzenesulfonamide], in data set [1], the inhibition at 20 µM is 96.4% and the MIC is 19.6 µM (≈ 9.2 µg/mL). In data set [3], it took 3.19 µM to reach half-maximal inhibition (IC50) and the inhibition at 10 µM is 80.8%.
Regarding `Cc1noc(NS(=O)(=O)c2ccc(Nc3cc(-c4ccccc4)ncn3)cc2)c1C` [Example 39, N-(3,4-Dimethyl-isoxazol-5-yl)-4-(6-phenyl-pyrimidin-4-ylamino)-benzenesulfonamide], the inhibition at 20 µM in data set [1] is -22.2%. The inhibition at 10 µM in data set [3] is 57.9%.
As for `Cc1noc(NS(=O)(=O)c2ccc(Nc3cc(-c4ccccc4F)ncn3)cc2)c1C` [Example 40, N-(3,4-Dimethyl-isoxazol-5-yl)-4-[6-(2-fluoro-phenyl)-pyrimidin-4-ylamino]-benzenesulfonamide], the inhibition at 20 µM in data set [1] is -8.5%. In data set [3], the IC50 was 2.43 µM and the inhibition at 10 µM was 88.6%.
Consider `COc1ccccc1-c1cc(Nc2ccc(S(=O)(=O)NC(=O)C(C)C(C)=O)cc2)ncn1` (centres unmarked) [Example 41, 4-[6-(2-Methoxy-phenyl)-pyrimidin-4-ylamino]-N-(2-methyl-3-oxo-butyryl)-benzenesulfonamide], for which the inhibition at 20 µM in data set [1] is -4.8%. In addition, the inhibition at 10 µM in data set [3] stood at 59%.
The like results for `Cc1noc(NS(=O)(=O)c2ccc(Nc3cc(-c4cccc(C(F)(F)F)c4)ncn3)cc2)c1C` [Example 42, N-(3,4-Dimethyl-isoxazol-5-yl)-4-[6-(3-trifluoromethyl-phenyl)-pyrimidin-4-ylamino]-benzenesulfonamide] were, in that order, 24.2% and 17%.
As to `Cc1noc(NS(=O)(=O)c2ccc(Nc3cc(-c4cccc5ccccc45)ncn3)cc2)c1C` [Example 43, N-(3,4-Dimethyl-isoxazol-5-yl)-4-(6-naphthalen-1-yl-pyrimidin-4-ylamino)-benzenesulfonamide], the inhibition at 20 µM in data set [1] is -9.2%. In addition, in data set [3], the IC50 came to 13.8 µM and the inhibition at 10 µM came to 58.8%.

Source of the values: patent publication US20150368209A1, “4-Pyrimidinylamino-benzenesulfonamide derivatives and their use for the inhibition of polo-like kinase 1 (PLK1) for the treatment of cancer and their use for the treatment of bacterial infections” (VICHEM CHEMIE KUTATÓ KFT., priority 2013, published 2015).
